Source: patent publication US20040034104A1, “2,2-Diphenylbutanamide derivatives and medicines containing the same” (priority 2000, published 2004)

Assays:
[1] = test system: opioid receptor (μ-opioid); assay: Opioid receptor agonist activity in guinea pig ileum longitudinal muscle specimens; settings: agonist activity relative to DAMGO (=1.0); ileum longitudinal muscle specimens with Auerbach's plexus; method of Oka et al.
Description: Hartley male guinea pigs (body weight: about 500 g) wer employed. The ileum (15-30 cm) was removed from the ileocecum of each guinea pig, to thereby prepare longitudinal muscle specimens having Auerbach's plexus. Opioid receptor activity of the test drugs was measured through a method proposed by Oka et al. (Eur. J. Pharmacol., 77; 137-141, 1982). Agonist activity is represented by the efficacy relative to the activity of DAMGO ([D-Ala^2, N-MePhe^4, Gly^5-ol]-enkephalin), which is a selective μ-opioid agonist.

| Compound | melting point | Relative potency [1] |
| --- | --- | --- |
| CN(C)C(=O)C(CCN1CCN(c2ccccc2O)CC1)(c1ccccc1)c1ccccc1 [Compound No. 36, 4-[4-(2-Hydroxyphenyl)piperazin-1-yl]-N,N-dimethyl-2,2-diphenylbutanamide] | – | 10 |
| CN(C)C(=O)C(CCN1CCN(c2ccccc2OCCO)CC1)(c1ccccc1)c1ccccc1 [Compound No. 43, 4-[4-[2-(2-hydroxyethoxy)phenyl]piperazin-1-yl]-N,N-dimethyl-2,2-diphenylbutanamide] | – | 20 |
| CN(C)C(=O)C(CCN1CCC(c2ccccc2OCCO)CC1)(c1ccccc1)c1ccccc1 [Compound No. 69, 4-[4-[2-(2-hydroxyethoxy)phenyl]piperidin-1-yl]-N,N-dimethyl-2,2-diphenylbutanamide] | – | 10 |
| C[C@@H](NC(=O)[C@@H](N)Cc1ccc(O)cc1)C(=O)NCC(=O)N(C)[C@@H](Cc1ccccc1)C(=O)NCCO [DAMGO, [D-Ala^2, N-MePhe^4, Gly^5-ol]-enkephalin, reference compound] | – | 1.0 |
| CN(C)C(=O)C(CCN1CCN(c2ccccc2OCC(=O)O)CC1)(c1ccccc1)c1ccccc1 [compound 45] | – | 20 |

Continued, in another order:

| melting point | Compound | Relative potency [1] |
| --- | --- | --- |
| 202 °C | CN(C)C(=O)C(CCN1CCC(c2ccccc2OCC(=O)O)CC1)(c1ccccc1)c1ccccc1 | – |
| 147 °C | CCOC(=O)COc1ccccc1C1=CCN(CCC(C(=O)N(C)C)(c2ccccc2)c2ccccc2)CC1 | – |
| 135 °C | CN(C)C(=O)C(CCN1CC=C(c2ccccc2OCC(=O)O)CC1)(c1ccccc1)c1ccccc1 | – |
| 239 °C | O=C(O)COc1ccccc1C1CCN(CCC(C(=O)N2CCCC2)(c2ccccc2)c2ccccc2)CC1 | – |
| 156 to 158 °C | CN(C)C(=O)C(CCN1CCC(c2ccccc2OC(C)(C)C(=O)O)CC1)(c1ccccc1)c1ccccc1 | – |
